# Source: ChEMBL document CHEMBL5360625, “Design, Synthesis, and Antitumor Activity Evaluation of 2-Arylmethoxy-4-(2,2'-dihalogen-substituted biphenyl-3-ylmethoxy) Benzylamine Derivatives as Potent PD-1/PD-L1 Inhibitors” (J Med Chem, 2023)
# Assays:
# [1] = target: Programmed cell death protein 1/Programmed cell death 1 ligand 1 (Homo sapiens, UniProt Q9NZQ7); assay: Inhibition of PD-1/PD-L1 interaction (unknown origin) incubated for 1 hr by HTRF assay; type: protein-complex assay
# [2] = system: PBMC; assay: Cytotoxicity against human PBMC cells assessed as reduction in cell viability at 1 to 4 uM measured after 48 hrs by CCK-8 assay; type: toxicity, cell-based; conditions: dose 1-4 µM
# [3] = system: MC-38; assay: Antitumor activity against mouse MC38 cells expressing human PD-L1 protein assessed as reduction in cell viability measured after 48 hrs by CCK-8 assay; type: functional, cell-based; conditions: MC-38, 48 h
# [4] = AUC (0 to t) in Sprague-Dawley rat at 8 mg/kg, iv measured upto 48 hrs by LC-MS/MS analysis; type: ADME, organism-based; parameters: dose 8 mg/kg, time < 48 hrs, route iv; conditions: in vivo
# [5] = AUC (0 to t) in Sprague-Dawley rat at 40 mg/kg, IG measured upto 48 hrs by LC-MS/MS analysis; type: ADME, organism-based; parameters: dose 40 mg/kg, time < 48 hrs, route ig; conditions: in vivo, po
# [6] = AUC (0 to t) in Sprague-Dawley rat at 10 mg/kg, ip measured upto 48 hrs by LC-MS/MS analysis; type: ADME, organism-based; parameters: time < 48 hrs, dose 10 mg/kg, route ip; conditions: in vivo
# [7] = AUC (0 to infinity) in Sprague-Dawley rat at 8 mg/kg, iv measured upto 48 hrs by LC-MS/MS analysis; type: ADME, organism-based; parameters: time < 48 hrs, dose 8 mg/kg, route iv; conditions: in vivo
# [8] = AUC (0 to infinity) in Sprague-Dawley rat at 40 mg/kg, IG measured upto 48 hrs by LC-MS/MS analysis; type: ADME, organism-based; parameters: time < 48 hrs, dose 40 mg/kg, route ig; conditions: in vivo, po, 48 h
# [9] = AUC (0 to infinity) in Sprague-Dawley rat at 10 mg/kg, ip measured upto 48 hrs by LC-MS/MS analysis; type: ADME, organism-based; parameters: time < 48 hrs, dose 10 mg/kg, route ip; conditions: in vivo
# [10] = Cmax in Sprague-Dawley rat at 8 mg/kg, iv measured upto 48 hrs by LC-MS/MS analysis; type: ADME, organism-based; parameters: time < 48 hrs, dose 8 mg/kg, route iv; conditions: in vivo
# [11] = Cmax in Sprague-Dawley rat at 40 mg/kg, IG measured upto 48 hrs by LC-MS/MS analysis; type: ADME, organism-based; parameters: dose 40 mg/kg, time < 48 hrs, route ig; conditions: in vivo, po
# [12] = Cmax in Sprague-Dawley rat at 10 mg/kg, ip measured upto 48 hrs by LC-MS/MS analysis; type: ADME, organism-based; parameters: time < 48 hrs, dose 10 mg/kg, route ip; conditions: in vivo
# [13] = Tmax in Sprague-Dawley rat at 8 mg/kg, iv measured upto 48 hrs by LC-MS/MS analysis; type: ADME, organism-based; conditions: in vivo
# [14] = Tmax in Sprague-Dawley rat at 10 mg/kg, ip measured upto 48 hrs by LC-MS/MS analysis; type: ADME, organism-based; conditions: in vivo
# [15] = Half life in Sprague-Dawley rat at 8 mg/kg, iv measured upto 48 hrs by LC-MS/MS analysis; type: ADME, organism-based; conditions: in vivo, iv, 8 mg/kg, 48 h
# [16] = Half life in Sprague-Dawley rat at 40 mg/kg, IG measured upto 48 hrs by LC-MS/MS analysis; type: ADME, organism-based; conditions: in vivo, po, 40 mg/kg, 48 h
# [17] = Half life in Sprague-Dawley rat at 10 mg/kg, ip measured upto 48 hrs by LC-MS/MS analysis; type: ADME, organism-based; conditions: in vivo
# [18] = Apparent volume of distribution in Sprague-Dawley rat at 8 mg/kg, iv measured upto 48 hrs by LC-MS/MS analysis; type: ADME, organism-based; conditions: in vivo, iv, 8 mg/kg, 48 h
# [19] = Apparent volume of distribution in Sprague-Dawley rat at 40 mg/kg, IG measured upto 48 hrs by LC-MS/MS analysis; type: ADME, organism-based; conditions: in vivo, po
# [20] = Apparent volume of distribution in Sprague-Dawley rat at 10 mg/kg, ip measured upto 48 hrs by LC-MS/MS analysis; type: ADME, organism-based; conditions: in vivo
# [21] = Clearance in Sprague-Dawley rat at 8 mg/kg, iv measured upto 48 hrs by LC-MS/MS analysis; type: ADME, organism-based; conditions: in vivo, iv, 8 mg/kg, 48 h
# [22] = Clearance in Sprague-Dawley rat at 40 mg/kg, IG measured upto 48 hrs by LC-MS/MS analysis; type: ADME, organism-based; conditions: in vivo, po, 40 mg/kg, 48 h
# [23] = Clearance in Sprague-Dawley rat at 10 mg/kg, ip measured upto 48 hrs by LC-MS/MS analysis; type: ADME, organism-based; conditions: in vivo
# [24] = Bioavailability in Sprague-Dawley rat at 40 mg/kg, IG measured upto 48 hrs by LC-MS/MS analysis; type: ADME, organism-based; conditions: in vivo, po
# Programmed cell death protein 1/Programmed cell death 1 ligand 1, sequence (Q15116 whole entry): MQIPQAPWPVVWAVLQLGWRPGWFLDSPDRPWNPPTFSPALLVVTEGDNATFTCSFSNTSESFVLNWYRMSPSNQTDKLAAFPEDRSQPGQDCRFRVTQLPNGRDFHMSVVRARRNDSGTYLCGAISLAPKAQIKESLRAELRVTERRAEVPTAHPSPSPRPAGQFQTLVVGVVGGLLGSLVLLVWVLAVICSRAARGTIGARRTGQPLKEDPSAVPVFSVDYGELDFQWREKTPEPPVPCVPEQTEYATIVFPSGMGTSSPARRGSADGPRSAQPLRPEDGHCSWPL
# Programmed cell death protein 1/Programmed cell death 1 ligand 1, sequence (Q9NZQ7 whole entry): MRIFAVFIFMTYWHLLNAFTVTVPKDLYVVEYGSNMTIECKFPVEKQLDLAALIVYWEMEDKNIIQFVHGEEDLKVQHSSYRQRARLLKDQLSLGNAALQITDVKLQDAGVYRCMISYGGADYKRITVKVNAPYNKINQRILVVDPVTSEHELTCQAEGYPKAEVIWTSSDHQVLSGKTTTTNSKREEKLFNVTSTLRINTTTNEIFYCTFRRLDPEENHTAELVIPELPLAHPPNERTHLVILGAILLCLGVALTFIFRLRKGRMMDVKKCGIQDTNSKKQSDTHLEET
compound,measurement,setting,value
COc1c(NCc2ccc(OCc3ccc(F)cc3)c(CNCCNC(C)=O)c2)cccc1-c1ccc2cc[nH]c2c1,IC50,[1],> 32 µM
CC(=O)NCCNCc1ccc(OCc2cccc(-c3ccccc3F)c2C)cc1OCc1cncc(C#N)c1,IC50,[1],24.3 µM
same,Activity,[2],Non-Toxic
COc1c(COc2ccc(CNCCO)c(OCc3cccc(C#N)c3)c2)cccc1-c1ccccc1F,IC50,[1],1660 µM
COc1c(COc2ccc(CN3CCC[C@@H]3C(=O)O)c(OCc3cccc(C#N)c3)c2)cccc1-c1ccccc1,IC50,[1],19.4 µM
Cc1c(COc2ccc(CNCCO)c(OCc3cncc(C#N)c3)c2)cccc1-c1ccccc1F,IC50,[1],8.5 µM
same,Activity,[2],Non-Toxic
COc1c(NCc2ccc(OCc3ccc(C(=O)O)cc3)c(CNCCO)c2)cccc1-c1ccccc1,IC50,[1],> 32 µM
COc1c(COc2ccc(CN3CC(C(=O)O)C3)c(OCc3cncc(C#N)c3)c2)cccc1-c1ccccc1,IC50,[1],4.7 µM
N#Cc1cccc(COc2cc(OCc3cccc(-c4ccccc4F)c3Cl)ccc2CNCCO)c1,IC50,[1],12.7 µM
same,Activity,[2],Non-Toxic
COc1c(COc2ccc(CNCCNC(C)=O)c(OCc3cccc(C#N)c3)c2)cccc1-c1ccc2c(c1)OCCO2,IC50,[1],2.9 µM
Cc1c(COc2ccc(CNCCO)c(OCc3cccc(C#N)c3)c2)cccc1-c1ccccc1F,IC50,[1],37.6 µM
N#Cc1cccc(COc2cc(OCc3cccc(-c4ccccc4F)c3Cl)ccc2CN2CC(C(=O)O)C2)c1,IC50,[1],33.6 µM
COc1c(COc2ccc(OCc3cccc(C#N)c3)c(CNCCO)c2)cccc1-c1ccccc1,IC50,[1],> 32 µM
COc1c(COc2ccc(CNCCNC(C)=O)c(OCc3cccc(C#N)c3)c2)cccc1-c1ccccc1Cl,IC50,[1],3.6 µM
COc1c(NCc2ccc(OCc3ccc(F)cc3)c(CNCCO)c2)cccc1-c1ccccc1,IC50,[1],> 32 µM
N#Cc1cccc(COc2cc(OCc3cccc(-c4ccccc4F)c3F)ccc2CN[C@@H](CO)C(=O)O)c1,IC50,[1],115 µM
COc1c(COc2ccc(CNCCO)c(OCc3cccc(C#N)c3)c2)cccc1-c1ccccc1,IC50,[1],2.4 µM
COc1c(COc2ccc(CN[C@@H](CO)C(=O)O)c(OCc3cncc(C#N)c3)c2)cccc1-c1ccccc1F,IC50,[1],616 µM
COc1c(COc2ccc(CNCCNC(C)=O)c(OCc3ccc(F)cc3)c2)cccc1-c1ccccc1,IC50,[1],> 32 µM
COc1c(NCc2ccc(OCc3cccc(C#N)c3)c(CNCCO)c2)cccc1-c1ccc2ccccc2c1,IC50,[1],> 32 µM
COc1c(COc2ccc(CN3CCC(O)C3)c(OCc3cncc(C#N)c3)c2)cccc1-c1ccccc1 (configuration not stated),IC50,[1],6.2 µM
COc1c(COc2ccc(CNCCO)c(OCc3ccc(F)cc3)c2)cccc1-c1ccccc1,IC50,[1],8.6 µM
COc1c(COc2ccc(CNCCNC(C)=O)c(OCc3cncc(C#N)c3)c2)cccc1-c1ccccc1F,IC50,[1],1000 µM
COc1cc(COc2cc(OCc3cccc(-c4ccccc4)c3OC)ccc2CNCCNC(C)=O)ccn1,IC50,[1],13.7 µM
COc1c(COc2ccc(CN[C@@H](CO)C(=O)O)c(OCc3cccc(C#N)c3)c2)cccc1-c1ccccc1F,IC50,[1],2130 µM
COc1c(COc2ccc(CN[C@@H](CO)C(=O)O)c(OCc3cccc(C#N)c3)c2)cccc1-c1ccccc1,IC50,[1],2.6 µM
COc1c(COc2ccc(CNCCO)c(OCc3cncc(C#N)c3)c2)cccc1-c1ccccc1,IC50,[1],0.8 µM
COc1c(COc2cc(OCc3cncc(C#N)c3)c(CNCCNC(C)=O)cc2Cl)cccc1-c1ccccc1F,IC50,[1],468 µM
COc1c(NCc2ccc(OCc3ccc(F)cc3)c(CNCCO)c2)cccc1-c1ccc2cc[nH]c2c1,IC50,[1],> 32 µM
N#Cc1cccc(COc2cc(OCc3cccc(-c4ccccc4F)c3)ccc2CNCCO)c1,IC50,[1],> 500 µM
COc1c(COc2ccc(CNCCNC(C)=O)c(OCc3cccc(F)c3)c2)cccc1-c1ccccc1,IC50,[1],11.3 µM
COc1c(COc2ccc(CN3CCC[C@H]3C(=O)O)c(OCc3cccc(C#N)c3)c2)cccc1-c1ccccc1,IC50,[1],18.9 µM
COc1c(COc2ccc(CNCCNC(C)=O)c(OCc3cccc(C#N)c3)c2)cccc1-c1ccc2ccccc2c1,IC50,[1],16 µM
COc1c(COc2ccc(CNCCO)c(OCc3cncc(C#N)c3)c2)cccc1-c1ccccc1F,IC50,[1],417 µM
COc1c(COc2ccc(CNCCNC(C)=O)c(OCc3cncc(C#N)c3)c2)cccc1-c1ccccc1,IC50,[1],1.6 µM
COc1c(COc2ccc(CNCC(=O)O)c(OCc3cccc(C#N)c3)c2)cccc1-c1ccccc1,IC50,[1],5.5 µM
COc1c(COc2ccc(CN3C[C@@H](O)C[C@@H]3C(=O)O)c(OCc3cccc(C#N)c3)c2)cccc1-c1ccccc1,IC50,[1],21.8 µM
COc1c(NCc2ccc(OCc3cccc(C#N)c3)c(CNCCNC(C)=O)c2)cccc1-c1ccc2ccccc2c1,IC50,[1],> 32 µM
COc1c(COc2ccc(CNCCNC(C)=O)c(OCc3cccnc3F)c2)cccc1-c1ccccc1,IC50,[1],12.9 µM
COc1c(COc2cc(OCc3cncc(C#N)c3)c(CNCCO)cc2Cl)cccc1-c1ccccc1F,IC50,[1],348 µM
COc1c(NCc2ccc(OCc3ccc(F)cc3)c(CNCCO)c2)cccc1-c1ccc2ccccc2c1,IC50,[1],> 32 µM
COc1c(COc2ccc(CNCCNC(C)=O)c(OCc3cccc(C#N)c3)c2)cccc1-c1ccccc1F,IC50,[1],2.4 µM
COc1c(COc2ccc(CNCCNC(C)=O)c(OCc3cccc(C#N)c3)c2)cccc1-c1ccccc1,IC50,[1],23.3 µM
COc1c(COc2ccc(OCc3cccc(C#N)c3)c(CNCCNC(C)=O)c2)cccc1-c1ccccc1,IC50,[1],> 32 µM
COc1c(COc2ccc(CNCCNC(C)=O)c(OCc3ccc(C#N)cc3)c2)cccc1-c1ccccc1,IC50,[1],22.7 µM
COc1c(COc2ccc(CNCCNC(C)=O)c(OCc3cccnc3)c2)cccc1-c1ccccc1,IC50,[1],9.4 µM
N#Cc1cccc(COc2cc(OCc3cccc(-c4ccccc4F)c3Cl)ccc2CNCC(=O)O)c1,IC50,[1],6 µM
same,Activity,[2],Non-Toxic
same,IC50,[3],> 8 µM
same,AUC(0-t) at 48 h,[4],1.37 µg·h/mL
same,AUC(0-t) at 48 h,[5],2.66 µg·h/mL
same,AUC(0-t) at 48 h,[6],1.97 µg·h/mL
same,AUC(0-inf),[7],1.84 µg·h/mL
same,AUC,[8],2.86912 µg·h/mL
same,AUC(0-inf),[9],2.16 µg·h/mL
same,Cmax,[10],2.53 µg/mL
same,Cmax,[11],1.29 µg/mL
same,Cmax,[12],0.786 µg/mL
same,Tmax,[13],4.8 min
same,Tmax,[14],49.8 min
same,t1/2,[15],6.6 min
same,t1/2,[16],188 min
same,half-life,[17],97.8 min
same,Vz,[18],2.04 L/kg
same,Vz,[19],65.83 L/kg
same,Vz,[20],8.28 L/kg
same,CL,[21],4.52 L/h/kg
same,CL,[22],34.35 L/h/kg
same,CL/F,[23],4.68 L/h/kg
same,bioavailability,[24],42%
COc1c(NCc2ccc(OCc3cccc(C#N)c3)c(CNCCO)c2)cccc1-c1ccccc1,IC50,[1],32 µM
COc1c(NCc2ccc(OCc3cccc(C#N)c3)c(CNCCO)c2)cccc1-c1ccc2cc[nH]c2c1,IC50,[1],> 32 µM
N#Cc1cccc(COc2cc(OCc3cccc(-c4ccccc4F)c3F)ccc2CNCCO)c1,IC50,[1],130 µM
COc1c(NCc2ccc(OCc3cccc(C#N)c3)c(CNCCNC(C)=O)c2)cccc1-c1ccccc1,IC50,[1],> 32 µM
COc1c(COc2ccc(CN[C@H](CO)C(=O)O)c(OCc3cccc(C#N)c3)c2)cccc1-c1ccccc1,IC50,[1],3.2 µM
"COc1c(COc2ccc(CN[C@H](C(=O)O)C(C)O)c(OCc3cccc(C#N)c3)c2)cccc1-c1ccccc1 (single isomer, unassigned)",IC50,[1],17.3 µM
COc1c(COc2ccc(CNCCNC(C)=O)c(OCc3cccc(C#N)c3)c2)cccc1-c1ccc(F)cc1,IC50,[1],16 µM
COc1c(COc2ccc(CNCCNC(C)=O)c(OCc3cccc(C)c3)c2)cccc1-c1ccccc1,IC50,[1],18.3 µM
COc1c(COc2ccc(CNCCNC(C)=O)c(OCc3cccc(C#N)c3)c2)cccc1-c1cccc(F)c1,IC50,[1],5.5 µM
N#Cc1cccc(COc2cc(OCc3cccc(-c4ccccc4F)c3Cl)ccc2CN2CCC(O)C2)c1 (configuration not stated),IC50,[1],19.2 µM
same,Activity,[2],Non-Toxic
COc1nc(OCc2cccc(-c3ccccc3)c2C)ccc1CNCCNC(C)=O,Activity,[2],Non-Toxic
N#Cc1cncc(COc2cc(OCc3cccc(-c4ccccc4F)c3Cl)ccc2CN[C@@H](CO)C(=O)O)c1,IC50,[1],7.3 µM
same,Activity,[2],Non-Toxic
COC(=O)c1ccc(COc2ccc(CNc3cccc(-c4ccccc4)c3OC)cc2CNCCO)cc1,IC50,[1],> 32 µM
